Assay results: publication PMC8765781, “A platform of assays for the discovery of anti-Zika small-molecules with activity in a 3D-bioprinted outer-blood-retina model” (PLoS ONE, 2022)
Read-outs that look alike come from different tables or passages of the source.

What was measured:
in vitro = settings: African green monkey
[1] = system: wild-type ZIKV (Ugandan MR766 strain) in Vero cells; test: ZIKV cytopathic effect (CPE) inhibition qHTS assay, CellTiter-Glo readout; type: cell-based, Zika virus; settings: for IC50: read-out: ZIKV-infection (CPE, ZIKV Antiviral Assays), IC50
[2] = system: caspase-3 activity induced by ZIKV in Vero cells; test: cells; type: cell-based; settings: read-out: Caspase 3 (ZIKV Antiviral Assays), IC50
[3] = system: ZIKV-mCherry (Cambodian strain FSS13025); test: microbe, parasite or virus in culture; type: cell-based, Zika virus
[4] = system: ZIKV-RLuc (Cambodian strain FSS13025); test: microbe, parasite or virus in culture; type: cell-based, Zika virus; settings: read-out: Rluc-ZIKV (ZIKV Antiviral Assays), IC50
[5] = Zika virus, Vero, from Hill fit of the response curve, 50% of maximum activity response, 194 cherry-picked compounds, protocol name not given, read-out: AC50
[6] = Zika virus, Vero, potency in log units (Molar) from Hill fit of the response curve, 194 cherry-picked compounds, protocol name not given, read-out: Log AC50 (converted)
[7] = Zika virus, Vero cells, wild-type ZIKV MOI 1, 48 hr, unit inferred
[8] = difference between neutral response and maximum compound response
[9] = Zika virus, ZIKV-infected Vero cells, 48 hr, unit inferred
[10] = Zika virus, Vero, read-out: Log AC50 (M) (converted)

Row | SMILES | CC50 at 48 h (in vitro) [µM] | AC50 [1, 5] [M] | AC50 [1, 6] [M] | IC50 [1, 7] [µM] | Efficacy [1, 8] | IC50 [2, 9] [µM] | CC-v2 (curve class of the dose response curve) [3] | Efficacy (difference between neutral response and maximum compound response) [3] | Max Resp (difference between neutral response and response at highest compound concentration) [3] | AC50 ([3]; Zika virus, Vero) [M] | AC50 [3, 10] [M] | IC50 ([4]; Zika virus, Vero, 48 h) [µM] | CC-v2 (curve class classification of the dose response curve) [1] | Efficacy [1] | AC50 ([1]; Zika virus, Vero) [M] | IC50 ([1]; Zika virus, Vero, 48 h) [µM] | AC50 [1, 10] [M] | IC50 ([2]; Zika virus, Vero, 48 h) [µM] | CC50 (in vitro) [µM] | further results
1 | C=C1CC[C@@]2(OC1)O[C@H]1CC3C4CC=C5C[C@@H](O[C@@H]6O[C@@H](C)[C@H](O)[C@@H](O)[C@H]6O)C[C@@H](O[C@@H]6O[C@H](C)[C@H](O)[C@H](O)[C@H]6O[C@@H]6O[C@@H](C)[C@H](O)[C@@H](O)[C@H]6O)[C@]5(C)C4CC[C@]3(C)[C@H]1[C@@H]2C (stereo partly drawn) [NCGC00384710-01] | > 50 | 1.23e-05 | 1.23e-05 | 12.3 | -26.266 | 1.24 | -1.2 | -59.162 | -100.305 | 7.14e-07 | 7.14e-07 | 6.95 | – | – | – | – | – | – | – | –
2 | CC1=CC[C@]2(C(=O)O[C@@H]3O[C@H](CO[C@@H]4O[C@H](CO)[C@@H](O[C@@H]5O[C@@H](C)[C@H](O)[C@@H](O)[C@H]5O)[C@H](O)[C@H]4O)[C@@H](O)[C@H](O)[C@H]3O)CC[C@]3(C)C(CCC4[C@@]5(C)C[C@@H](O)[C@H](O)[C@@](C)(CO)C5CC[C@]43C)C2C1C (stereo partly drawn) [NCGC00381125-01] | > 50 | – | – | – | – | – | -1.4 | -51.276 | -44.108 | – | – | 0.003 | -3 | -73.731 | 6.18e-06 | 6.18 | 6.18e-06 | 0.01 | – | –
3 | C[C@H]1CC[C@@]2(OC1)O[C@H]1CC3C4CC[C@H]5C[C@@H](O[C@@H]6O[C@H](CO)[C@H](O[C@@H]7O[C@H](CO)[C@@H](O)[C@H](O[C@@H]8OC[C@@H](O)[C@H](O)[C@H]8O)[C@H]7O[C@@H]7O[C@H](CO)[C@@H](O)[C@H](O)[C@H]7O)[C@H](O)[C@H]6O)[C@H](O)C[C@]5(C)C4=CC(=O)[C@]3(C)[C@H]1[C@@H]2C (stereo partly drawn) [NCGC00385095-01] | > 50 | 1.55e-05 | 1.55e-05 | 15.5 | -21.201 | 7.84 | -1.4 | -65.601 | -99.657 | – | – | 6.95 | – | – | – | – | – | – | – | –
4 | C[C@@H]1O[C@@H](O[C@H]2[C@H](O[C@H]3[C@H](O)[C@@H](C(=O)O)O[C@@H](O[C@H]4CC[C@@]5(C)C(CC[C@]6(C)C5CC[C@]57OC[C@@]8(CCC(C)(C)CC85)[C@H](O)C[C@]76C)C4(C)C)[C@@H]3O[C@@H]3O[C@H](CO)[C@@H](O[C@@H]4OC[C@@H](O)[C@H](O)[C@H]4O)[C@H](O)[C@H]3O)O[C@H](CO)[C@H](O)[C@@H]2O)[C@H](O)[C@H](O)[C@H]1O (stereo partly drawn) [NCGC00384492-01] | – | – | – | – | – | – | -1.4 | -52.527 | -99.118 | – | – | 5.61 | – | -27.701 | 1.1e-05 | 11 | 1.1e-05 | 5.64 | – | CC50 at 48 h (in vitro; Vero cells): > 50 µM
5 | CC(=O)O[C@@H]1C[C@]2(C)[C@@]3(CCC4[C@@]5(C)CC[C@H](O[C@@H]6O[C@H](C(=O)O)[C@@H](O)[C@H](OC7OC(CO)C(O)C(O)[C@H]7O[C@@H]7O[C@@H](C)[C@H](O)[C@@H](O)[C@H]7O[C@@H]7OC[C@](O)(CO)[C@H]7O)[C@H]6OC6OC(CO)C(O)C(O)C6O)C(C)(C)C5CC[C@]42C)OC[C@@]12CCC(C)(C)CC23 (stereo partly drawn) [NCGC00381303-01] | – | – | – | – | – | – | -1.2 | -57.722 | -99.519 | 3.18e-06 | 3.18e-06 | 1.77 | – | -19.952 | 2.75e-06 | 2.75 | 2.75e-06 | 4.48 | – | CC50 at 48 h (in vitro; Vero cells): > 50 µM
6 | CC(=O)OCC1OC(OC2COC(OC3COC(OC4C(OC5C(CO)OC(OC6CCC7(C)C(CCC8(C)C7CC=C7C9CC(C)(C)CCC9(C(=O)OC9OC(CO)C(O)C(O)C9OC9OCC(OC%10OCC(O)(CO)C%10O)C(O)C9O)C(O)CC78C)C6(C)C)C(O)C5O)OCC(O)C4O)C(O)C3O)C(O)C2O)C(OC(=O)/C=C/c2ccccc2)C(O)C1OC(C)=O (stereo not drawn) [NCGC00381294-01] | – | 5.62e-06 | 5.62e-06 | 5.62 | -55.683 | 0.2 | -1.3 | -53.243 | -100.305 | 1.16e-06 | 1.16e-06 | 1.6 | – | – | – | – | – | – | > 50 | CC-v2 (curve class classification of the dose response curve) ([1]; curve class v2 (Inglese et al. 2006)): -2.2
7 | C=C(C)C(C)C1OC23CC4(CO2)C(CCC2C5(C)CCC(OC6OCC(O)C(OC7OC(CO)C(O)C(OC8OCC(O)C(O)C8O)C7O)C6OC6OC(CO)C(O)C6O)C(C)(C)C5CCC24C)C3C(C)(O)C1OC(C)=O (stereo not drawn) [NCGC00384732-01] | > 50 | 1.38e-05 | 1.38e-05 | 13.8 | -32.277 | 0.16 | -1.4 | -78.707 | -96.911 | – | – | 6.95 | – | – | – | – | – | – | – | –
8 | C[C@@H]1O[C@@H](O[C@H]2[C@H](OC(=O)[C@]34CCC(C)(C)C[C@H]3C3=CCC5[C@@]6(C)C[C@H](O)[C@H](O[C@@H]7O[C@H](C(=O)O)[C@@H](O)[C@H](O)[C@H]7O)[C@@](C)(CO)C6[C@H](O)C[C@@]5(C)[C@]3(C)CC4)OC[C@H](O)[C@@H]2O)[C@H](O)[C@H](O)[C@H]1O[C@@H]1OC[C@@H](O)[C@H](O[C@@H]2O[C@@H](C)[CH][C@@H](O)[C@H]2O)[C@H]1O (stereo partly drawn) [NCGC00384879-01] | – | – | – | – | – | – | -1.2 | -58.138 | -66.904 | 6.35e-10 | 6.35e-10 | 0.13 | -3 | -56.214 | 4.36e-06 | 4.36 | 4.36e-06 | 5.64 | > 50 | –
9 | C=C(C)C(=O)O[C@H]1CC2=CC(C/C(C)=C/[C@H]3OC(=O)C(=C)[C@H]13)OC2=O (stereo partly drawn) [NCGC00384526-01] | – | – | – | – | – | – | 4 | 0 | -97.701 | – | – | 10.2 | -1.1 | -93.113 | 1.43e-05 | 14.3 | 1.43e-05 | 6.46 | > 50 | –
10 | C/C=C(\C)C(=O)O[C@H]1[C@H](OC(C)=O)[C@]2(CO)[C@H](O)[C@H](O)[C@]3(C)C(=CCC4[C@@]5(C)CC[C@H](O[C@@H]6O[C@H](C(=O)O)[C@@H](O)[C@H](O[C@@H]7OC[C@H](O)[C@H](O[C@@H]8OC[C@H](O)[C@H](O)[C@H]8O)[C@H]7O)[C@H]6O[C@@H]6O[C@H](CO)[C@@H](O)[C@H](O)[C@H]6O)C(C)(C)C5CC[C@]43C)[C@@H]2CC1(C)C (stereo partly drawn) [NCGC00381072-01] | – | – | – | – | – | – | -2.2 | -56.385 | -100.02 | 5.66e-06 | 5.66e-06 | 4.45 | – | -30.676 | 8.71e-06 | 8.71 | 8.71e-06 | 2.52 | > 50 | –
11 | CC(=O)O[C@@H]1[C@@H](O)[C@H]2O[C@@H]3C=C(C)[C@@H](O)C[C@]3(CO)[C@]1(C)[C@]21CO1 [NCGC00380400-01, NT-2 toxin] | – | – | – | – | – | – | -1.2 | -59.911 | -100.305 | – | – | – | -1.2 | -41.676 | – | – | – | – | – | Log AC50 (M) [1]: -5.594 M; Max Resp [1]: 6.747; AC50 ([1]; read-out: AC50): 2.55e-06 M; IC50 [1]: 2.55 µM; IC50 [2]: 2.29 µM; Log AC50 (M) [3]: -7.0328 M; AC50 ([3]; read-out: AC50): 9.27e-08 M; IC50 [4]: 0.64 µM
12 | CC1(C)CC[C@]2(C(=O)O)CC[C@]3(C)C(=CCC4[C@@]5(C)CCC(O[C@@H]6OC[C@H](O)[C@H](O)[C@H]6O[C@@H]6O[C@H](CO)[C@@H](O)[C@H](O)[C@H]6O)[C@@](C)(CO)C5CC[C@]43C)[C@@H]2C1 (stereo partly drawn) [NCGC00347737-02] | – | – | – | – | – | – | – | – | – | – | – | 12.3 | – | -61.863 | 2.43e-07 | 0.24 | 2.43e-07 | 0.02 | – | CC50 at 48 h (in vitro; Vero cells): > 50 µM
13 | C/C=C(/C)C(=O)O[C@H]1[C@@H]2[C@H](C)C(=O)O[C@@H]2C[C@@H](C)[C@@H]2C=CC(=O)[C@]21C [NCGC00385048-01] | > 50 | – | – | – | – | – | – | – | – | – | – | 18.1 | – | -20.801 | – | – | – | 0.65 | – | –
